Data on 5 molecules can be found in US10919890B2, “Salts and pharmaceutical compositions thereof for the treatment of inflammatory disorders” (GALAPAGOS NV, priority 2014, dated 2021).

Counter-ions that a name gives are not always drawn.

The nature of series [1]: Complementary salt analysis (stability, hygroscopicity). The series is classed as physicochemical. Particulars: for Hygroscopicity: salt from Protocol 4; for Salt stability: stability evaluation 1 week at 40° C./75% Relative humidity.
Series [2] is described as follows: Dog bioavailability study. Set-up: species or system beagle dogs. As to conditions: in vivo, po, 25 mg/kg. The protocol: The dogs are not fasted before dosing, and have free access to water. Every day of the treatment, a half food ration is provided after the T0 blood sampling, 8 to 17 min before treatment, and the second half ration is given just after dosing or 1 h after treatment for period 2. A 3 days washout period is ensured between treatments. […] The capsule composition is described in Table XX below. The capsules are administered orally with water (5-10 mL), to provide good oesophageal transit. Each animal is checked at least once daily. Blood is collected from the jugular vein into lithium heparinised tubes at T0 (before food administration) and then at 1 […], and 24 h post treatment. Plasma is then obtained from blood by centrifugation (2500 g for 10 min at 4° C.), and stored at -20° C. until analysis. […] After vortex mixing and centrifugation at 4° C., the supernatants are diluted with a 0.5 volume of HPLC grade water in a midi-eppendorf 96-well plate. The plate is sealed and shaken to ensure sample homogeneity prior to analysis. […] Pharmacokinetic analysis is performed using WinNonlinTM software version 5.3, using concentrations from individual animals. Non-compartmental analysis is applied to determine the PK parameters (Cmax, Tmax, AUC0-last, t1/2, etc. . . . ) Concentrations below the limit of detection are set to zero for descriptive statistics and PK parameter calculations.

The nature of series [3]: Dissolution in solvents (salt Protocol 1). The series is classed as physicochemical. Particulars: DCM, up to 20 relative volumes, agitated at 50° C. An excerpt:
The solvent is selected from isopropanol, ethanol, methanol, isopropyl acetate, THF, TBME, acetone, methyl ethyl ketone, DCM, and MeCN.

As for `O=C(O)/C=C\C(=O)O` [Compound 1 maleic acid salt], the Hygroscopicity entry in series [1] is recorded as “non-hygroscopic”.

Take `Cl.O.O.O.O=C(Nc1nc2cccc(-c3ccc(CN4CCS(=O)(=O)CC4)cc3)n2n1)C1CC1` [Compound 1.HCl.3H2O]: the Tmax in series [2] amounted to 2.0 h.

As to `O=C(Nc1nc2cccc(-c3ccc(CN4CCS(=O)(=O)CC4)cc3)n2n1)C1CC1.O=C(O)/C=C\C(=O)O` [Compound 1 maleic acid salt], the Salt stability result in series [1] is “stable”.

For `O=C(Nc1nc2cccc(-c3ccc(CN4CCS(=O)(=O)CC4)cc3)n2n1)C1CC1` [Compound 1, cyclopropane carboxylic acid {5-[4-(1,1-dioxo-thiomorpholin-4-ylmethyl)-phenyl]-[1,2,4]triazolo[1,5-a]pyridin-2-yl}-amide], the Dissolution in solvent result in series [3] was “almost full dissolution”.

For `Cl.O=C(Nc1nc2cccc(-c3ccc(CN4CCS(=O)(=O)CC4)cc3)n2n1)C1CC1` [Compound 1 HCl salt], in series [1], the Hygroscopicity result is given as “non-hygroscopic” and the Salt stability entry is reported as “stable”.
